Results published in ChEMBL document CHEMBL1135604, “Geometry-affinity relationships of the selective serotonin receptor ligand 9-(aminomethyl)-9,10-dihydroanthracene” (J Med Chem, 2002).
pKi: −log10 of the molar value.

target: 5-hydroxytryptamine receptor 2A (Rattus norvegicus) (UniProt P14842); test: Binding affinity was performed using [3H]ketanserin as the radioligand and stably transfected NIH3T3 cells expressing the 5-hydroxytryptamine 2A receptor (GF-62 cells).
Sequence (P14842 whole entry, looked up): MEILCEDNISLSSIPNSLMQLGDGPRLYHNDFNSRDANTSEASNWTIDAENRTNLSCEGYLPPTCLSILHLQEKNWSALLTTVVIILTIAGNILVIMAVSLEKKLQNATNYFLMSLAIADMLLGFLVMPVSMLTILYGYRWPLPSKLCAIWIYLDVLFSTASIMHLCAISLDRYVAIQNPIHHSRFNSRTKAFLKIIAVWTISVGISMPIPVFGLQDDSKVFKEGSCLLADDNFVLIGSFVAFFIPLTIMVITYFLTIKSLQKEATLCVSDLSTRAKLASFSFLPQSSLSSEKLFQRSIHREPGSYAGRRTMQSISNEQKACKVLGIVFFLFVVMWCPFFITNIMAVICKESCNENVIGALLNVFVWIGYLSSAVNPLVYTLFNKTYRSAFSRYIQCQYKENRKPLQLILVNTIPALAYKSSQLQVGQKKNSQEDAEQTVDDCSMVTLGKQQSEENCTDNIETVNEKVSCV

Row | SMILES | pKi
1 | NCC12CC(c3ccccc31)c1ccccc12 | 5.17
2 | NCCc1ccccc1Cc1ccccc1 | 5.74
3 | CC1(C)c2ccccc2C(CN)c2ccccc21 | 6.48
4 | NCC1CC2c3ccccc3C1c1ccccc12 (centres undefined) | 5.02
5 | NC1CC2c3ccccc3C1c1ccccc12 (centres undefined) | < 5.00
6 | NCC1c2ccccc2CCc2ccccc21 | 6.95
7 | c1ccc2c(c1)Cc1cccc3c1C2CNC3 (centres undefined) | 6.53
8 | CC(N)C1c2ccccc2Cc2ccccc21 (centres undefined) | 6.71
9 | c1ccc2c(c1)C1c3ccccc3C2C2NC12 (centres undefined) | < 5.00
10 | NCc1c2ccccc2cc2ccccc12 | 5.64
11 | CC1(CN)c2ccccc2Cc2ccccc21 | 7.19
12 | NCC1Cc2ccccc2-c2ccccc21 (centres undefined) | 6.15
13 | NCC12CCC(c3ccccc31)c1ccccc12 | 6.11
14 | NCC1CCCc2ccccc21 (centres undefined) | < 5.00
